In patent US7968579B2, “Antifungal triazole derivatives” (Daewoong Pharmaceutical Co., Ltd., priority 2005, dated 2011):
Values after ≈ are worked out from the molar mass of the structure shown.

Assays:
Candida albicans [1] = assay: In vitro assay for antifungal activity; assay type: cell-based; conditions: RPMI 1640, 1% DMSO, concentration at which 50% of the fungi were inhibited vs negative control, alamarblue, 24 hours; for MIC: Candida albicans
Protocol: (§1) Fungal strains to be tested were inoculated onto Sabouraud dextrose agar, YM agar, and Potato dextrose agar and sufficiently cultured at 35° C. for two to three days. Individual single colonies of the yeast fungi selected out of the cultured strains were sufficiently suspended in 5 ml of 0.85% sterile physiological saline, followed by correction to adjust the absorbance thereof at 530 nm to 0.108. The suspensions were diluted serially by 1:50 and then 1:20 in RPMI 1640 media to prepare liquid inocula ranging in cell count from 1.0×10^3 to 5.0×10^3 CFU/ml.
(§2) Antifungal samples were prepared by diluting the compounds of the present inventions in RPMI 1640 media to serial concentrations ranging from 0.0625 to 32 μg/ml. As a vehicle, DMSO was contained in a final concentration of 1% (V/V) in the antifungal samples. 0.1 ml of each of the dilutions in series was added to equal volume of each of the fungal inocula.
(§3) Concentrations of the compounds at which 50% of the fungi were inhibited compared to the negative control were determined using the growth indicator alamarblue.

Candida krusei = assay: In vitro assay for antifungal activity; assay type: cell-based; conditions: RPMI 1640, 1% DMSO, concentration at which 50% of the fungi were inhibited vs negative control, alamarblue, 24 hours; for MIC: Pichia kudriavzevii
Protocol: as §1, §2, §3

Aspergillus fumigatus = assay: In vitro assay for antifungal activity; assay type: cell-based; conditions: RPMI 1640, 1% DMSO, concentration at which 50% of the fungi were inhibited vs negative control, alamarblue; for MIC: Aspergillus fumigatus
Protocol: as §1, §2, §3

Candida glabrata = assay: In vitro assay for antifungal activity; assay type: cell-based; conditions: RPMI 1640, 1% DMSO, concentration at which 50% of the fungi were inhibited vs negative control, alamarblue, 24 hours; for MIC: Nakaseomyces glabratus
Protocol: as §1, §2, §3

Aspergillus terreus = assay: In vitro assay for antifungal activity; assay type: cell-based; conditions: RPMI 1640, 1% DMSO, concentration at which 50% of the fungi were inhibited vs negative control, alamarblue; for MIC: Aspergillus terreus
Protocol: as §1, §2, §3

Cryptococcus neoformans = assay: In vitro assay for antifungal activity; assay type: cell-based; conditions: RPMI 1640, 1% DMSO, concentration at which 50% of the fungi were inhibited vs negative control, alamarblue; for MIC: Cryptococcus neoformans
Protocol: as §1, §2, §3

Candida tropicalis = assay: In vitro assay for antifungal activity; assay type: cell-based; conditions: RPMI 1640, 1% DMSO, concentration at which 50% of the fungi were inhibited vs negative control, alamarblue, 24 hours; for MIC: Candida tropicalis
Protocol: as §1, §2, §3

Aspergillus flavus = assay: In vitro assay for antifungal activity; assay type: cell-based; conditions: RPMI 1640, 1% DMSO, concentration at which 50% of the fungi were inhibited vs negative control, alamarblue; for MIC: Aspergillus flavus
Protocol: as §1, §2, §3

Candida parapsilosis = assay: In vitro assay for antifungal activity; assay type: cell-based; conditions: RPMI 1640, 1% DMSO, concentration at which 50% of the fungi were inhibited vs negative control, alamarblue, 24 hours; for MIC: Lodderomyces parapsilosis
Protocol: as §1, §2, §3

[2] = Assay for acute toxicity in mice; assay type: in vivo; conditions: oral administration, suspension in aqueous 0.5% methylcellulose, up to a dose of 2000 mg/kg, two weeks
Candida albicans [3] = assay: In vivo assay for antifungal activity (systemic candidiasis); conditions: male mice infected i.v. with Candida albicans; 20 mg/kg orally once a day for seven days; at 28 days after the infection
Protocol: Azole compounds synthesized in Examples were assayed for antifungal activity in vivo.
A suspension containing Candida albicans in a concentration ranging from 7×10^7 to 8×10^7 cfu/ml was intravenously injected at a dose of 0.1 ml/head into 10 male mice. 2 hrs after the injection, the compounds of the present inventions were orally administered at a dose of 20 mg/kg to respective mice in groups of 10. The compounds were administered once a day for seven days. The periods of time for which the infected mice lived were counted. The number of mice that survived the fungal infection was represented as % survival for each test group.

Row | Antifungal Activity (MIC) Candida albicans (Candida albicans [1]) | Antifungal Activity (MIC) Candida krusei (Candida krusei) [mg/L] | Antifungal Activity (MIC) Aspergillus fumigatus (Aspergillus fumigatus) [mg/L] | Antifungal Activity (MIC) Candida glabrata (Candida glabrata) [mg/L] | Antifungal Activity (MIC) Aspergillus terreus (Aspergillus terreus) [mg/L] | Antifungal Activity (MIC) Cryptococcus neoformans (Cryptococcus neoformans) [mg/L] | Antifungal Activity (MIC) Candida tropicalis (Candida tropicalis) [mg/L] | Antifungal Activity (MIC) Aspergillus flavus (Aspergillus flavus) [mg/L] | Antifungal Activity (MIC) Candida parapsilosis (Candida parapsilosis) | MIC (Candida albicans [1]) [mg/L] | MIC (Candida krusei) [mg/L] | MIC (Aspergillus fumigatus) [mg/L] | MIC (Candida glabrata) [mg/L] | MIC (Aspergillus terreus) [mg/L] | MIC (Cryptococcus neoformans) [mg/L] | MIC (Candida tropicalis) [mg/L] | MIC (Aspergillus flavus) [mg/L] | MIC (Candida parapsilosis) [mg/L] | Structure (SMILES) | toxic syndromes (acute toxicity) [2] | % survival (Candida albicans [3]) [%]
1 | ≦0.015 μg/ml | 0.5 | 1 | 2 | 4 | 0.25 | 0.25 | 4 | ≦0.015 μg/ml |  |  |  |  |  |  |  |  |  | C[C@@H](n1cc(-c2ccccc2)cn1)[C@](O)(Cn1cncn1)c1ccc(F)cc1F [Example 2] |  | 
2 |  |  |  |  |  |  |  |  |  | ≤ 0.015 | 1 (≈ 2.42 µM) | 0.5 (≈ 1.21 µM) | 2 (≈ 4.84 µM) | 2 (≈ 4.84 µM) | 0.125 (≈ 0.302 µM) | 1 (≈ 2.42 µM) | 4 (≈ 9.68 µM) | 0.031 (≈ 0.075 µM) | C[C@@H](n1cc(-c2ccccc2F)cn1)[C@](O)(Cn1cncn1)c1ccc(F)cc1F [Example 3, (2R,3R)-3-(4-(2-fluorophenyl)1H-pyrazole-1-yl)-2-(2,4-difluorophenyl)-1-(1H-1,2,4-triazole-1-yl)butane-2-ol] |  | 
3 |  |  |  |  |  |  |  |  |  | ≤ 0.015 | 0.5 (≈ 1.21 µM) | 1 (≈ 2.42 µM) | 2 (≈ 4.84 µM) | 2 (≈ 4.84 µM) | 0.031 (≈ 0.075 µM) | 0.25 (≈ 0.605 µM) | 8 (≈ 19.4 µM) | ≤ 0.015 | C[C@@H](n1cc(-c2cccc(F)c2)cn1)[C@](O)(Cn1cncn1)c1ccc(F)cc1F [Example 8, (2R,3R)-3-(4-(3-fluorophenyl)-1H-pyrazole-1-yl)-2-(2,4-difluorophenyl)-1-(1H-1,2,4-triazole-1-yl)butane-2-ol] |  | 
4 |  |  |  |  |  |  |  |  |  | ≤ 0.015 | 0.25 (≈ 0.582 µM) | 2 (≈ 4.65 µM) | 1 (≈ 2.33 µM) | 4 (≈ 9.31 µM) | 0.25 (≈ 0.582 µM) | 0.063 (≈ 0.147 µM) | 8 (≈ 18.6 µM) | ≤ 0.015 | C[C@@H](n1cc(-c2cccc(Cl)c2)cn1)[C@](O)(Cn1cncn1)c1ccc(F)cc1F [Example 9, (2R,3R)-3-(4-(3-chlorophenyl)-1H-pyrazole-1-yl)-2-(2,4-difluorophenyl)-1-(1H-1,2,4-triazole-1-yl)butane-2-ol] |  | 
5 |  |  |  |  |  |  |  |  |  | ≤ 0.015 | 0.5 (≈ 1.05 µM) | 1 (≈ 2.11 µM) | 2 (≈ 4.22 µM) | 1 (≈ 2.11 µM) | 0.125 (≈ 0.264 µM) | 0.125 (≈ 0.264 µM) | 4 (≈ 8.43 µM) | ≤ 0.015 | C[C@@H](n1cc(-c2ccc(Br)cc2)cn1)[C@](O)(Cn1cncn1)c1ccc(F)cc1F [Example 15, (2R,3R)-3-(4-(4-bromophenyl)-1H-pyrazole-1-yl)-2-(2,4-difluorophenyl)-1-(1H-1,2,4-triazole-1-yl)butane-2-ol] |  | 

Row | Structure (SMILES) | Antifungal Activity (MIC) Candida albicans (Candida albicans [1]) | Antifungal Activity (MIC) Candida krusei (Candida krusei) [mg/L] | Antifungal Activity (MIC) Aspergillus fumigatus (Aspergillus fumigatus) [mg/L] | Antifungal Activity (MIC) Candida glabrata (Candida glabrata) [mg/L] | Antifungal Activity (MIC) Aspergillus terreus (Aspergillus terreus) [mg/L] | Antifungal Activity (MIC) Cryptococcus neoformans (Cryptococcus neoformans) [mg/L] | Antifungal Activity (MIC) Candida tropicalis (Candida tropicalis) [mg/L] | Antifungal Activity (MIC) Aspergillus flavus (Aspergillus flavus) [mg/L] | Antifungal Activity (MIC) Candida parapsilosis (Candida parapsilosis) | MIC (Candida albicans [1]) [mg/L] | MIC (Candida krusei) [mg/L] | MIC (Aspergillus fumigatus) [mg/L] | MIC (Candida glabrata) [mg/L] | MIC (Aspergillus terreus) [mg/L] | MIC (Cryptococcus neoformans) [mg/L] | MIC (Candida tropicalis) [mg/L] | MIC (Aspergillus flavus) [mg/L] | MIC (Candida parapsilosis) [mg/L] | toxic syndromes (acute toxicity) [2] | % survival (Candida albicans [3]) [%]
6 | C[C@@H](n1cc(-c2ccc(Cl)cc2)cn1)[C@](O)(Cn1cncn1)c1ccc(F)cc1F [Example 14, (2R,3R)-3-(4-(4-chlorophenyl)-1H-pyrazole-1-yl)-2-(2,4-difluorophenyl)-1-(1H-1,2,4-triazole-1-yl)butane-2-ol] |  |  |  |  |  |  |  |  |  | ≤ 0.015 | 0.25 (≈ 0.582 µM) | 1 (≈ 2.33 µM) | 2 (≈ 4.65 µM) | 2 (≈ 4.65 µM) | 0.25 (≈ 0.582 µM) | 0.031 (≈ 0.0721 µM) | 4 (≈ 9.31 µM) | ≤ 0.015 | not to suffer from any toxic syndromes | 
7 | C[C@@H](n1cc(-c2ccc([N+](=O)[O-])cc2)cn1)[C@](O)(Cn1cncn1)c1ccc(F)cc1F [Example 17, (2R,3R)-2-(2,4-difluorophenyl)-3-(4-(4-nitrophenyl)-1H-pyrazole-1-yl)-1-(1H-1,2,4-triazole-1-yl)butane-2-ol] |  |  |  |  |  |  |  |  |  | ≤ 0.015 | 0.25 (≈ 0.568 µM) | 2 (≈ 4.54 µM) | 4 (≈ 9.08 µM) | 2 (≈ 4.54 µM) | 0.031 (≈ 0.0704 µM) | 0.125 (≈ 0.284 µM) | 8 (≈ 18.2 µM) | ≤ 0.015 | not to suffer from any toxic syndromes | 
8 | OC(Cn1cncn1)(Cn1cncn1)c1ccc(F)cc1F [Fluconazole, reference compound] |  |  |  |  |  |  |  |  |  | 4 (≈ 13.1 µM) | > 32 | > 128 | > 32 | > 128 | 8 (≈ 26.1 µM) | > 8 | > 128 | > 8 |  | 10
